Data from patent US10570184B2, “GLP-1/glucagon receptor co-agonists for medical use” (Novo Nordisk A/S, priority 2014, dated 2020).
Starred links: 1 amine or outer side, 2 acyl side, 3 side chain; linkers in the order of their positions; H or OH if unused. Non-standard residues stand in square brackets, D forms with d. Residues, ends and D or L forms follow the SMILES beside them. Groups on a side chain read outwards from the residue. *: point of attachment. C18 diacid = O=C(O)CCCCCCCCCCCCCCCCC(=O)*; γGlu = O=C(O)[C@H](CCC(=O)[*:2])N[*:1]; AEEA = NCCOCCOCC(=O)O; Aib = CC(C)(N)C(=O)O

Target: T1, human GLP-1 receptor (Homo sapiens, UniProt P43220)
T1 construct: expressed in transfected cells; host or cells: membranes of BHK cells (parent BHKTS13), clone FCW467-12A
Test: Assay (II)(a) GLP-1 receptor binding, 125I-GLP-1 displacement SPA on BHK membranes
Conditions: without presence of serum albumin; read-out: GLP-1R IC50 (nM) [Assay (II)(a)]
Method: The GLP-1 receptor (GLP-1R) binding is a measure of affinity of a compound for the human GLP-1 receptor. The receptor binding of each compound to the human GLP-1 receptor was measured in a displacement binding assay. In this type of assay a labelled ligand (in this case 125I-GLP-1) is bound to the receptor. Each derivative was added in a series of concentrations to isolated membranes containing the human GLP-1 receptor and displacement of the labelled ligand was monitored. The receptor binding was reported as the concentration at which half of the labelled ligand was displaced from the receptor, the IC50 value. In order to test the binding of the derivatives to albumin, the assay may be performed in a very low concentration of serum albumin (max. 0.001% final assay concentration) as well as in the presence of a (considerably) higher concentration of serum albumin (2.0% final assay concentration). An increase of the IC50 value, in the presence of serum albumin indicates an affinity to serum albumin and represents a method to predict a protracted pharmacokinetic profile of the test substance in animal models. The following chemicals were used in the assay: DMEM w/o phenol red (Gibco 11880-028), Pen/strep (Invitrogen 15140-122), G418 (Invitrogen 10131-027), 1 M Hepes (Gibco 15630), EDTA (Invitrogen 15575-038), PBS (Invitrogen 14190-094), fetal calf serum (Invitrogen 16140-071), EGTA, MgCl2 (Merck 1.05832.1000), Tween 20 (Amresco 0850C335), SPA particles (wheat germ agglutinin (WGA) SPA beads, Perkin Elmer RPNQ0001), [125I]-GLP-1]-(7-36)NH2 (produced in-house), OptiPlate™-96 (Perkin Elmer). Buffer 1 consisted of 20 mM Na-HEPES plus 10 mM EDTA and pH was adjusted to 7.4. Buffer 2 consisted of 20 mM Na-HEPES plus 0.1 mM EDTA and pH was adjusted to 7.4. Assay buffer consisted of 50 mM HEPES supplemented with 5 mM EGTA, 5 mM MgCl2, 0.005% Tween 20 and pH was adjusted to 7.4. The cells used in this assay (clone FCW467-12A) were BHK cells with BHKTS13 as a parent cell line. The cells express the human GLP-1 receptor. The cells were grown at 5% CO2 in DMEM, 10% fetal calf serum, 1% Pen/Strep (Penicillin/Streptomycin) and 1.0 mg/ml of the selection marker G418. To make a membrane preparation the cells were grown to approximately 80% confluence. The cells were washed twice in phosphate-buffered saline and harvested. The cells were pelleted using a brief centrifugation and the cell pellet was kept on ice. The cell pellet was homogenised with ULTRA-THURRAX dispersing instrument for 20-30 seconds in a suitable amount of buffer 1 (e.g., 10 ml). The homogenate was centrifuged for 15 minutes. The pellet was re-suspended (homogenised) in 10 ml buffer 2 and centrifuged. This step was repeated once more. The resulting pellet was re-suspended in buffer 2 and the protein concentration was determined. The membranes were aliquoted and stored at minus 80° C. • 1. For the receptor binding assay, 50 μl of the assay buffer was added to each well of an assay plate. • 2. Test compounds were serially diluted to give the following concentrations: 8×10EE-7 M, 8×10EE-8 M, 8×10EE-9 M, 8×10EE-10 M, 8×10EE-11 M, 8×10EE-12 M and 8×10EE-13 M. Twenty-five μl were added to appropriate wells in the assay plate. • 3. Cell membrane aliquots were thawed and diluted to their working concentration. Fifty μl were added to each well in the assay plate. • 4. WGA SPA beads were suspended in assay buffer at 20 mg/ml. The suspension was diluted to 10 mg/ml in assay buffer just prior to addition to the assay plate. Fifty μl were added to each well in the assay plate. • 5. The incubation was started by adding 25 μl of […] solution of [125I]-GLP-1]-(7-36)NH2 to each well of the assay plate. A 25 μl aliquot was reserved for measuring total counts/well. • 6. The assay plate was incubated for 2 h at 30° C. • 7. The assay plate was centrifuged for 10 min. • 8. The assay plate was read in a Perkin Elmer TopCount NXT instrument. […]

T1 sequence (P43220 24-463): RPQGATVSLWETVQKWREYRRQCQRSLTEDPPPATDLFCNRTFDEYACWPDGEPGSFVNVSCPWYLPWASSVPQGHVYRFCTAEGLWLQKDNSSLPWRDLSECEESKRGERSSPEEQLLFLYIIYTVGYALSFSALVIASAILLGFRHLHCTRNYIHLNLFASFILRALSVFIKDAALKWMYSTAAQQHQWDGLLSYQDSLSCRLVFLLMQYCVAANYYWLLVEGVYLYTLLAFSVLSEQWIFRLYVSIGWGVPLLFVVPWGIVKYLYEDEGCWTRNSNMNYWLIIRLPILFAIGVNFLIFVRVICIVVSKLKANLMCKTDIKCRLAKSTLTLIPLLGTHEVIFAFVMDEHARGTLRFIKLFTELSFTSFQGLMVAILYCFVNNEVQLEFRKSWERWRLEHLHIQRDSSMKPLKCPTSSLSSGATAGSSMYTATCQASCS

| SMILES | IC50 [nM] |
| --- | --- |
| CC[C@H](C)[C@H](NC(=O)[C@H](CC(C)C)NC(=O)[C@H](Cc1c[nH]c2ccccc12)NC(=O)[C@H](CCCCNC(=O)COCCOCCNC(=O)COCCOCCNC(=O)CC[C@H](NC(=O)CC[C@H](NC(=O)CC[C@H](NC(=O)CCCCCCCCCCCCCCCCC(=O)O)C(=O)O)C(=O)O)C(=O)O)NC(=O)[C@@H](NC(=O)[C@H](Cc1ccccc1)NC(=O)[C@H](CC(=O)O)NC(=O)[C@H](CCCNC(=N)N)NC(=O)[C@H](C)NC(=O)[C@H](CCCNC(=N)N)NC(=O)[C@H](CCCNC(=N)N)NC(=O)[C@H](C)NC(=O)[C@H](CC(=O)O)NC(=O)[C@H](CC(C)C)NC(=O)[C@H](Cc1ccc(O)cc1)NC(=O)[C@H](CCCCN)NC(=O)[C@H](CO)NC(=O)[C@H](Cc1ccc(O)cc1)NC(=O)[C@H](CC(=O)O)NC(=O)[C@H](CO)NC(=O)[C@@H](NC(=O)[C@H](Cc1ccccc1)NC(=O)[C@@H](NC(=O)CNC(=O)[C@H](CCC(N)=O)NC(=O)C(C)(C)NC(=O)[C@@H](N)Cc1c[nH]cn1)[C@@H](C)O)[C@@H](C)O)C(C)C)C(=O)N[C@@H](CO)C(=O)N[C@H](C(N)=O)[C@@H](C)O [Chem. 1, N^ε24-[2-[2-[2-[[2-[2-[2-[[(4S)-4-carboxy-4-[[(4S)-4-carboxy-4-[[(4S)-4-carboxy-4-(17-carboxyheptadecanoylamino)butanoyl]amino]butanoyl]amino]butanoyl]amino]ethoxy]ethoxy]acetyl]amino]ethoxy]ethoxy]acetyl]-[Aib2,Ala16,Arg20,Lys24,Ile27,Ser28]-Glucagon amide] (H-H[Aib]QGTFTSDYSKYLDARRARDFVK([AEEA-AEEA-γGlu-γGlu-γGlu-C18 diacid])WLIST-NH2) | 0.9 |
| CC[C@H](C)[C@H](NC(=O)[C@H](CC(C)C)NC(=O)[C@H](Cc1c[nH]c2ccccc12)NC(=O)[C@H](CCC(N)=O)NC(=O)[C@@H](NC(=O)[C@H](Cc1ccccc1)NC(=O)[C@H](CC(=O)O)NC(=O)[C@H](CCCNC(=N)N)NC(=O)[C@H](C)NC(=O)[C@H](CCCNC(=N)N)NC(=O)[C@H](CCCNC(=N)N)NC(=O)[C@H](C)NC(=O)[C@H](CC(=O)O)NC(=O)[C@H](CC(C)C)NC(=O)[C@H](Cc1ccc(O)cc1)NC(=O)[C@H](CCCCN)NC(=O)[C@H](CO)NC(=O)[C@H](CC(C)C)NC(=O)[C@H](CC(=O)O)NC(=O)[C@H](CO)NC(=O)[C@@H](NC(=O)[C@H](Cc1ccccc1)NC(=O)[C@@H](NC(=O)CNC(=O)[C@H](CCC(N)=O)NC(=O)C(C)(C)NC(=O)[C@@H](N)Cc1c[nH]cn1)[C@@H](C)O)[C@@H](C)O)C(C)C)C(=O)N[C@@H](CCCCNC(=O)COCCOCCNC(=O)COCCOCCNC(=O)CC[C@H](NC(=O)CC[C@H](NC(=O)CC[C@H](NC(=O)CCCCCCCCCCCCCCCCC(=O)O)C(=O)O)C(=O)O)C(=O)O)C(=O)N[C@H](C(N)=O)[C@@H](C)O [Chem. 5, N^ε28-[2-[2-[2-[[2-[2-[2-[[(4S)-4-carboxy-4-[[(4S)-4-carboxy-4-[[(4S)-4-carboxy-4-(17-carboxyheptadecanoylamino)butanoyl]amino]butanoyl]amino]butanoyl]amino]ethoxy]ethoxy]acetyl]amino]ethoxy]ethoxy]acetyl]-[Aib2,Leu10,Ala16,Arg20,Ile27,Lys28]-Glucagon amide] (H-H[Aib]QGTFTSDLSKYLDARRARDFVQWLIK([AEEA-AEEA-γGlu-γGlu-γGlu-C18 diacid])T-NH2; N-terminus assumed) | 0.1 |
| CC[C@H](C)[C@H](NC(=O)[C@H](CC(C)C)NC(=O)[C@H](Cc1c[nH]c2ccccc12)NC(=O)[C@H](CCC(N)=O)NC(=O)[C@@H](NC(=O)[C@H](Cc1ccccc1)NC(=O)[C@H](CC(=O)O)NC(=O)[C@H](CCC(N)=O)NC(=O)[C@H](C)NC(=O)[C@H](CCCNC(=N)N)NC(=O)[C@H](CCCNC(=N)N)NC(=O)[C@H](CC(C)C)NC(=O)[C@H](CC(=O)O)NC(=O)[C@H](CC(C)C)NC(=O)[C@H](Cc1ccc(O)cc1)NC(=O)[C@H](CCCCN)NC(=O)[C@H](CO)NC(=O)[C@H](CC(C)C)NC(=O)[C@H](CC(=O)O)NC(=O)[C@H](CO)NC(=O)[C@@H](NC(=O)[C@H](Cc1ccccc1)NC(=O)[C@@H](NC(=O)CNC(=O)[C@H](CCC(N)=O)NC(=O)C(C)(C)NC(=O)[C@@H](N)Cc1c[nH]cn1)[C@@H](C)O)[C@@H](C)O)C(C)C)C(=O)N[C@@H](CCCCNC(=O)COCCOCCNC(=O)COCCOCCNC(=O)CC[C@H](NC(=O)CC[C@H](NC(=O)CC[C@H](NC(=O)CCCCCCCCCCCCCCCCC(=O)O)C(=O)O)C(=O)O)C(=O)O)C(=O)N[C@H](C(N)=O)[C@@H](C)O [Chem. 9, N^ε28-[2-[2-[2-[[2-[2-[2-[[(4S)-4-carboxy-4-[[(4S)-4-carboxy-4-[[(4S)-4-carboxy-4-(17-carboxyheptadecanoylamino)butanoyl]amino]butanoyl]amino]butanoyl]amino]ethoxy]ethoxy]acetyl]amino]ethoxy]ethoxy]acetyl]-[Aib2,Leu10,Leu16,Ile27,Lys28]-Glucagon amide] (H-H[Aib]QGTFTSDLSKYLDLRRAQDFVQWLIK([AEEA-AEEA-γGlu-γGlu-γGlu-C18 diacid])T-NH2; N-terminus assumed) | 0.5 |
| CC[C@H](C)[C@H](NC(=O)[C@H](CC(C)C)NC(=O)[C@H](Cc1c[nH]c2ccccc12)NC(=O)[C@H](CCCCNC(=O)COCCOCCNC(=O)COCCOCCNC(=O)CC[C@H](NC(=O)CC[C@H](NC(=O)CC[C@H](NC(=O)CCCCCCCCCCCCCCCCC(=O)O)C(=O)O)C(=O)O)C(=O)O)NC(=O)[C@@H](NC(=O)[C@H](Cc1ccccc1)NC(=O)[C@H](CC(=O)O)NC(=O)[C@H](CCCNC(=N)N)NC(=O)[C@H](C)NC(=O)[C@H](CCCNC(=N)N)NC(=O)[C@H](CCCNC(=N)N)NC(=O)[C@H](CO)NC(=O)[C@H](CCC(=O)O)NC(=O)[C@H](CC(C)C)NC(=O)[C@H](Cc1ccc(O)cc1)NC(=O)[C@H](CCCCN)NC(=O)[C@H](CO)NC(=O)[C@H](Cc1ccc(O)cc1)NC(=O)[C@H](CC(=O)O)NC(=O)[C@H](CO)NC(=O)[C@@H](NC(=O)[C@H](Cc1ccccc1)NC(=O)[C@@H](NC(=O)CNC(=O)[C@H](CCC(N)=O)NC(=O)C(C)(C)NC(=O)[C@@H](N)Cc1c[nH]cn1)[C@@H](C)O)[C@@H](C)O)C(C)C)C(=O)N[C@@H](CO)C(=O)N[C@H](C(N)=O)[C@@H](C)O [Chem. 11, N^ε24-[2-[2-[2-[[2-[2-[2-[[(4S)-4-carboxy-4-[[(4S)-4-carboxy-4-[[(4S)-4-carboxy-4-(17-carboxyheptadecanoylamino)butanoyl]amino]butanoyl]amino]butanoyl]amino]ethoxy]ethoxy]acetyl]amino]ethoxy]ethoxy]acetyl]-[Aib2,Glu15,Arg20,Lys24,Ile27,Ser28]-Glucagon amide] (H-H[Aib]QGTFTSDYSKYLESRRARDFVK([AEEA-AEEA-γGlu-γGlu-γGlu-C18 diacid])WLIST-NH2) | 0.5 |
